Paper PMC10035370, “Targeting Tumor Angiogenesis with the Selective VEGFR-3 Inhibitor EVT801 in Combination with Cancer Immunotherapy” (Cancer Research Communications, 2022)

Tests used:
VEGFR-1 = molecular target: T1, VEGFR-1 (Homo sapiens, UniProt P17948); test: Cellular autophosphorylation assay, HEK293 cells transiently expressing VEGFR-1; assay type: cell-based
T1 construct: expressed in transfected cells; host or cells: HEK293T
Procedure: (§1) Transfection of HEK293T cells and Ba/F3 cells with VEGFR-1-Flag, VEGFR-2-Flag or VEGFR-3-Flag expression constructs was performed using Fugene-6 (Roche) as per manufacturer’s protocol. Briefly, Fugene-6 was pre-incubated with Opti-Mem (Gibco) before adding DNA. After 24 h, media was replaced with serum-free culture media containing 0.2 % BSA. On the next day, cells were incubated for 1 h in 1 mM orthovanadate, harvested, dissociated and distributed at 4 x 10^5 cells in 5 mL for HEK-VEGFR-1 and HEK-VEGFR-3, and 5 x 10^4 cells per 5 mL for HEK VEGFR-2 in the presence of EVT801 or SAR401849. After 30 min, the reaction was stopped by the addition of cold PBS supplemented with 1 mM orthovanadate. Cells were then lysed with 150 μl of RIPA buffer for 15 min at 4°C, then centrifuged for 10 min at 10,000 g. Supernatants (75 μl) were distributed in duplicate on 96 well plates that were precoated with the anti-flag, and left for 1 h at room temperature. After 3 washes, the anti-phosphotyrosine conjugated to the HRP was added and incubated for 1 h at room temperature. Wells were then washed 3 times with TBS buffer containing 0.5 % Tween-20 and 2 mM MgCl2. The reaction was stopped with 50 μL of 2 N H2SO4, and the signal was read with Envision at the wavelengths of 485 nm and 530 nm.

Pharmacokinetics in rats = assay type: in vivo; details: rat, plasma; Sprague-Dawley rats, 10 mg/kg; read-out: T1/2 in plasma (converted)
Procedure: Plasma samples and tumor homogenates were mixed with the precipitant solution (acetonitrile containing internal standard). The supernatant (180 µL) was transferred in a 96-well plate and 5 µL were injected. EVT801 and its main metabolite were quantified by LC-MS/MS following standard conditions.

4T1 tumors = test: 4T1 mammary carcinoma mouse model, with anti-PD-1; assay type: in vivo, mice
Procedure: The 4T1 mammary carcinoma mouse models were used as reported previously ([26]). Briefly, 1 × 10^5 4T1 cells were implanted into mammary fat pads of BALB/c mice. […] Tumors were measured two to three times weekly with calipers. The tumor volume (V) was calculated using the formula V = 0.52 × a^2 × b (a: smallest tumor diameter; b: largest tumor diameter). The tumors, lungs, and axillary lymph nodes were removed at day 21 for treatment with anti-PD-1, and day 28 for treatment with anti-CTLA-4. The tumors and the lungs were embedded in paraffin for histology studies. […] The metastatic scoring was determined as follows: (0) no metastasis; ([1]) 1 to 20 metastases < 50 μm; ([2]) between 21 and 50 metastases < 50 μm; ([3]) 1 or more metastases > […]; ([4]) 1 or more metastases > […].

CT26 tumors = test: CT26 ectopic tumor mouse model; assay type: in vivo, mice
Procedure: BALB/c mice were anesthetized with ketamine (100 mg/kg) combined with xylazine (10 mg/kg) via intraperitoneal injection. A total of 5 × 10^4 CT26 tumor cells were suspended in 200 μL of Matrigel matrix, and then inoculated in the flank of legs. After implantation, mice were randomly separated into two groups. One group received EVT801 by oral gavage and anti-PD-1 by intraperitoneal injection in a volume of 10 mL/kg, whereas the mice in the second group served as control, and were injected with IgG isotype. PD-1 was injected at day 11, day 14, and day 18 after CT26 inoculation. EVT801 was administrated daily by oral route at 30 mg/kg from day 11 until day 21. Tumor volume was measured on days 11, 13, 15, 18, 19 and 21 following tumor cell injection. The selected groups received vehicle or EVT801 orally in a volume of 10 mL/kg. At day 21, 60 mg/kg hypoxyprobe was injected 30 minutes before sacrifice of mice. The tumors were embedded in paraffin for histology studies.

VEGFR-3 = VEGFR-3 (Homo sapiens, UniProt P35916); test: Cellular autophosphorylation assay, HEK293 cells transiently expressing VEGFR-3; assay type: cell-based; parameters: expressed in transfected cells; host or cells: HEK293T; details: read-out: IC50 in cellular assays, VEGFR-3 autophosphorylation
Procedure: as §1

T1 sequence (P17948 27-1338): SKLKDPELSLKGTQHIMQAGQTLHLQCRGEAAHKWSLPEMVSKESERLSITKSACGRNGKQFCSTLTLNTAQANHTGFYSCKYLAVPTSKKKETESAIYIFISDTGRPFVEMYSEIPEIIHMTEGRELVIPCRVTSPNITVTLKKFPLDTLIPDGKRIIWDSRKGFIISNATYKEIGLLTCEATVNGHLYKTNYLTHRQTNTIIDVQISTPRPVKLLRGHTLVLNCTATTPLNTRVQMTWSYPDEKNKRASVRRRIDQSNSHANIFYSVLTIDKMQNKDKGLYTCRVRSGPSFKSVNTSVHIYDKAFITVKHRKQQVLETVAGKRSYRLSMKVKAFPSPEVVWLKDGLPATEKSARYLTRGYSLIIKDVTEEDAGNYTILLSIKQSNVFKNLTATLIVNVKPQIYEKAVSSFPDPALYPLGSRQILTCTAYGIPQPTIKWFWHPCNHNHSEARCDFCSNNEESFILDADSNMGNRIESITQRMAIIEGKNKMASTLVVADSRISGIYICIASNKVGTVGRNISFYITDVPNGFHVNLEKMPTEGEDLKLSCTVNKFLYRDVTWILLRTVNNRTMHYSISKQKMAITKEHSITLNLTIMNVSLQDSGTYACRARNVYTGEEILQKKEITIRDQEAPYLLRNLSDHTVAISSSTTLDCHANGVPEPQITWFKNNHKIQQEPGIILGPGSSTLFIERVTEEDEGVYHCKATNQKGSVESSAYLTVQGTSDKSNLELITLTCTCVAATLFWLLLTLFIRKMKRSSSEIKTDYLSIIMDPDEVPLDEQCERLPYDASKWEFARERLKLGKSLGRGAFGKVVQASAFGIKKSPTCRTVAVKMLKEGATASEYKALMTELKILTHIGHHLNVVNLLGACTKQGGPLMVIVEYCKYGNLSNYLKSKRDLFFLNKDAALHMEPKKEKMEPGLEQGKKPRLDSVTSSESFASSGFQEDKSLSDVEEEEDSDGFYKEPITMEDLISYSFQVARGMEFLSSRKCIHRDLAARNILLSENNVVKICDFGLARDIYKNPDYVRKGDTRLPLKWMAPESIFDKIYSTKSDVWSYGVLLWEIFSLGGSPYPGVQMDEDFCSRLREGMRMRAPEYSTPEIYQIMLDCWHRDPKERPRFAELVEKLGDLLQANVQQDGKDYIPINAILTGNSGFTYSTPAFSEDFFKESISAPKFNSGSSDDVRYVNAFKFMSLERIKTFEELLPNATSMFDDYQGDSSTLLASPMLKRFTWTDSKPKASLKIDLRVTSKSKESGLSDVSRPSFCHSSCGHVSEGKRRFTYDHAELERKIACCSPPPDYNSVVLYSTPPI
Sequence of VEGFR-3 (P35916 25-1363): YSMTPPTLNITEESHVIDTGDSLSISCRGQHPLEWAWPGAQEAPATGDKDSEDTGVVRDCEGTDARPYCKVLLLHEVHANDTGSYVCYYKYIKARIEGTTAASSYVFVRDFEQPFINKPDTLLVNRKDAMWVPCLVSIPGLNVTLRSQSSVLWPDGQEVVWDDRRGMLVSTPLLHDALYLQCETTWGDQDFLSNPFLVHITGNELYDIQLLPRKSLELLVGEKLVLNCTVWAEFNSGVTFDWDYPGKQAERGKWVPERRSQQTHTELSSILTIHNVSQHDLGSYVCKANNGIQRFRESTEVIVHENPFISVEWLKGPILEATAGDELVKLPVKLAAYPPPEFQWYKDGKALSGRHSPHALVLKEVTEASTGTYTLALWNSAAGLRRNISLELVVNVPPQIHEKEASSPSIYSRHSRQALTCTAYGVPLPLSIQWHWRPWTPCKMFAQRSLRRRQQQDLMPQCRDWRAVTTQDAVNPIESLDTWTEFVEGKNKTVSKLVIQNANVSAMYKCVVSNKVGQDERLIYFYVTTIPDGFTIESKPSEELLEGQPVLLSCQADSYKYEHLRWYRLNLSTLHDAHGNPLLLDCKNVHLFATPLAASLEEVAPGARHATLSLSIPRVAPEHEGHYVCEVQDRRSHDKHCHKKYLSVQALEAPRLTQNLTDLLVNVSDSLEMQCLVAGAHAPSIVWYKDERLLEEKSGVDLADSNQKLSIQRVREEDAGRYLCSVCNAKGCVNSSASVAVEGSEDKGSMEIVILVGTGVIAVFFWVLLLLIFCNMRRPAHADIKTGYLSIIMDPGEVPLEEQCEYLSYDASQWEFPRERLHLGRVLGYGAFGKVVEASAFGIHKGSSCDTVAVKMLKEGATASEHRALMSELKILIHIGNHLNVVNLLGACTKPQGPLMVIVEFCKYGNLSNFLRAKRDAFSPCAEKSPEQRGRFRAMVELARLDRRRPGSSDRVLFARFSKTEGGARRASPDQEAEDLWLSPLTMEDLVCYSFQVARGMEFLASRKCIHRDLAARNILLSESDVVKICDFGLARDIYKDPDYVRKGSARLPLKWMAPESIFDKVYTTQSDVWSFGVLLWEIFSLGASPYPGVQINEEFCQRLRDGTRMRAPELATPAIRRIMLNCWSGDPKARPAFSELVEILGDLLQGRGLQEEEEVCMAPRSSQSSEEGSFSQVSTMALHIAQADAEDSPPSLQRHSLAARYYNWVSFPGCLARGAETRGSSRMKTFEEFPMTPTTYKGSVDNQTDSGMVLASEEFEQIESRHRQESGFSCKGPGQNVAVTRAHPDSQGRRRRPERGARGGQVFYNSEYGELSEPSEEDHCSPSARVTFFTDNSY

Compound: CCn1c(N)c(-c2ncc[nH]2)c(=O)c2ccc(C#C[C@@](C)(O)COC)nc21 [EVT801]
- maximum inhibition of VEGFR-1 (VEGFR-1; HEK293T cellular autophosphorylation assay): below 50%
- IC50 (VEGFR-1; HEK293 cells, read-out: IC50 in cellular assays, VEGFR-1 autophosphorylation): 2.13 µM
- half-life (Pharmacokinetics in rats): 2.4 h
- intratumor infiltrated CD8+ cells (4T1 tumors; endpoint, not statistically significant): globally doubled
- T/C ratio, tumor volume (4T1 tumors; orthotopic, 2 weeks, EVT801 30 mg/kg twice per day and/or anti-PD-1 twice per week): 43%
- T/C ratio, tumor volume (CT26 tumors; BALB/c mice, EVT801 30 mg/kg twice per day, anti-PD-1 twice per week, or both): 55%
- reduction of hypoxyprobe-positive areas compared with vehicle (CT26 tumors; end of treatment, not statistically significant): 42%
- IC50 (VEGFR-3): 0.039 µM
